Several values for one entry are separate records, joined by “and”; a condition that tells them apart may be missing. Equal values may be shown once.
System: Rabbit Skin
Assay: Rabbit skin irritation
Experimental: Within 24 hours to 4 hours before test application, the backs of female albino New Zealand White rabbits were clipped free of hair, exposing 2 test and 2 control areas on each side of the spine with a size of approximately 15 cm×15 cm. The two test sites are located on the left cranial section and the right caudal section of the dorsal region. The two control sites are located on the left caudal and right cranial section of the dorsal region. FIG. 4 depicts the arrangement of test and control sites. The exposed skin is wiped with alcohol and dried. Rabbits of acceptable skin quality were selected and used for testing.
A 25×25 mm gauze patch saturated with 0.5 mL of 0.9% NaCl is used for the control and applied to the clipped control sites. The patches are secured using hypoallergenic, waterproof, surgical tape over the test and control sites. The animal's trunk is securely wrapped so as to maintain the position of the patches. Patches are left applied for a minimum of four hours.
After patch removal, the test and control sites were then scored for erythema and edema at 1, 24, 48 and 72 hours after patch removal. Only the 24, 48, and 72 hour observations were scored and used for calculations. If no response was expected, testing was conducted using three animals per test article. If irritation was anticipated, one animal was tested initially. If the first animal received a score of 2 or less for either erythema or edema, 2 additional rabbits were used to conclude the test.
This total was divided by the total number of observations. The same was done for the control sites. […] These scores for each animal were added and divided by the total number of animals to give the Primary Irritation Index. […] For any response, the Maximum Irritation Response, the time of onset of the response and the time of maximum response was recorded.
To positively validate the test, 10% sodium dodecyl sulfate (SDS), which is a known dermal irritant, in petroleum jelly was applied to a 2.5 cm×2.5 cm gauze patch. As a negative control, 0.5 mL of 0.9% NaCl was applied to a 2.5 cm×2.5 cm gauze patch. A Primary Irritation Index in the moderate to severe range is considered a positive result. The test system and methods utilized were the same as described above.

[1] = per rabbit, scores of 24, 48 and 72 hour observations added, patch at least four hours, sulfate

Q: `CCCCCCCCCCCCOS(=O)(=O)[O-].[Na+]` [10% SDS, sodium dodecyl sulfate] was tested. Which “Primary Irritation Index” value (3 animals, 0-0.4 Negligible, 0.5-1.9 Slight, 2-4.9 Moderate, 5-8 Severe) did it give?
A: The value was “Total Average (19.3) = 6.4 Primary Irritation Index”.

Q: What about the “ED (edema) score” value [1] of the same molecule?
A: Its value is 19 and 21 and 14.

Q: And the “ER (erythema) score” value [1]?
A: Its value is 21 and 23 and 18.

Q: What about the “ER + ED = Total” value (per rabbit, scores of 24, 48 and 72 hour observations added, sulfate) of the same molecule?
A: The value was 40 and 44 and 32.
